In patent US20260001928A1 (CORTERIA PHARMACEUTICALS, priority 2022, published 2026):
*1 amine or outer side, *2 acyl side, *3 side chain or, on linkers, in order; H or OH if unused. Where a SMILES comes first, the peptide text is derived from it. Side-chain parts run from the residue outwards. [ ]: non-standard residue; d: D form. The star is where a group is joined. C18 diacid = O=C(O)CCCCCCCCCCCCCCCCC(=O)*; C16 diacid = O=C(O)CCCCCCCCCCCCCCC(=O)*; γGlu = O=C(O)[C@H](CCC(=O)[*:2])N[*:1]; αMeK = C[C@](N)(CCCCN)C(=O)O; Pentanoyl = CCCCC(=O)*; AEEA = NCCOCCOCC(=O)O

What was measured:
CFR1R receptor = target: T1, CFR1R receptor (Homo sapiens, UniProt P34998); test: Activity at anti-target CFR1R receptor, cAMP assay in CRF1R-overexpression CHO-K1 cells; assay type: cell-based; conditions: 100% = Sauvagine at 100 nM; for EC50: cAMP
T1 construct: host or cells: CHO-K1 (clone 2)
T1 sequence (P34998 24-415): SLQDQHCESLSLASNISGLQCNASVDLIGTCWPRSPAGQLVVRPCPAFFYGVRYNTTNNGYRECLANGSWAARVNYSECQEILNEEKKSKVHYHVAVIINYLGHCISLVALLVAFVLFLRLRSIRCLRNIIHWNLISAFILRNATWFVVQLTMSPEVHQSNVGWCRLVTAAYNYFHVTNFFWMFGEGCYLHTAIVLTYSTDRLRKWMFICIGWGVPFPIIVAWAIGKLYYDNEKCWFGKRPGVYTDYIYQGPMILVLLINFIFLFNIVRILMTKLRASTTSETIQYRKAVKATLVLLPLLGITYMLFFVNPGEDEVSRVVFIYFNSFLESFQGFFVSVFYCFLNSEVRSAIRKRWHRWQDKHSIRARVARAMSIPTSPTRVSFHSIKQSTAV
Procedure, shortened: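 Clone 2; cryopreserved stocks (10% DMSO); 4000 cells/well final; 100% activation = Sauvagine 100 nM; otherwise as TeloHAEC protocol.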

human CRF2a receptor = target: T2, human CRF2a receptor (Homo sapiens, UniProt Q13324); test: Activity at human CRF2a receptor, cAMP functional assay in TeloHEAC cells; assay type: cell-based; conditions: TeloHEAC cells stably expressing human CRF2a receptor, relative to urocortin 2 (100 nM = 100%)
T2 construct: expressed in transfected cells; host or cells: TeloHEAC cells
T2 sequence (Q13324 1-411): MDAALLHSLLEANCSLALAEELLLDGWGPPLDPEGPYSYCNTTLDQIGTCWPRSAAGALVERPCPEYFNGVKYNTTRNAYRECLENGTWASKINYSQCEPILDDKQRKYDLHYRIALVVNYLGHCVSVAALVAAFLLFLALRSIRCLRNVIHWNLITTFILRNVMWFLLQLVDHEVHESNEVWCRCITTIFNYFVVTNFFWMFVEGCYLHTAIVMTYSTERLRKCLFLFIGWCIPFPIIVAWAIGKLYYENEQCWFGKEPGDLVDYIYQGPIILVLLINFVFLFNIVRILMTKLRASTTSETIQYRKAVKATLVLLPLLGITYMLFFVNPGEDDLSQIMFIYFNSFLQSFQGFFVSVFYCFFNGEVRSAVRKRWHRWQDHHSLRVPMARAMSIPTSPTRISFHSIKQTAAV
Procedure, shortened: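 cAMP accumulation was measured by HTRF 665/620 nm ratio after 30 min at 37° C compound exposure (16 twofold dilutions) of CRF2a-expressing TeloHEAC cells, 10000/well, in HEPES-buffered HBSS plus IBMX. Activity was normalised to urocortin 2 at 100 nM (100%), and EC50 was the concentration giving half-maximal activation.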

[1] = Chemical stability in buffer (pH 7.4 / pH 4.5), % purity loss; assay type: physicochemical; conditions: 40° C. vs 5° C., 14 or 28 days; for Buffer stability pH 4.5 % purity loss: 100 mM acetate buffer pH 4.5; for Buffer stability pH 7.4 % purity loss: 100 mM phosphate buffer pH 7.4
Experimental: Solubility and chemical stability were studied in 100 mM phosphate buffer (pH 7.4) and 100 mM acetate buffer (pH 4.5). Test compound powders were dissolved in both buffers at a target concentration of 10 mg/mL and incubated for 1 hour at room temperature. After centrifugation at 2500 rcf for 15 minutes, 10 μL of supernatant was diluted with 190 μL of the incubation buffer and analyzed by LC-UV (Acquity UPLC-DAD, Waters). Solubility was calculated by comparing the peak area of the test compound in the buffer sample with the peak area of the same compound dissolved at 0.5 mg/mL in water:acetonitrile 1:1, 0.1% formic acid.
From the centrifuged supernatant, two additional 80 μL aliquots were collected and diluted with 160 μL of incubation buffer. One aliquot was stored at 5° C., while the other was stored at 40° C. After 14 or 28 days, the samples were analyzed by LC-UV. Chemical stability was calculated as % loss using the following equations: […]

Emax (% I) (CFR1R receptor) | EC50 (CFR1R receptor) [nM] | EC50 (human CRF2a receptor) [nM] | Buffer stability pH 4.5 % purity loss [1] | Buffer stability pH 7.4 % purity loss [1] [%] | SMILES
20 | > 250 | 0.12 | nd/0 ^ % | – | CC[C@H](C)[C@H](NC(C)=O)C(=O)N[C@H](C(=O)N[C@@H](CC(C)C)C(=O)N[C@@H](CO)C(=O)N[C@@H](CC(C)C)C(=O)N[C@@H](CC(=O)O)C(=O)N[C@@H](C(=O)N1CCC[C@H]1C(=O)N[C@H](C(=O)N[C@@H](CCCCN)C(=O)N[C@@H](CC(C)C)C(=O)N[C@@H](CCCCNC(=O)CC[C@H](NC(=O)CCCCCCCCCCCCCCC(=O)O)C(=O)O)C(=O)N[C@@H](CCCCN)C(=O)N[C@H](C(=O)N[C@@H](CC(C)C)C(=O)N[C@@H](CC(C)C)C(=O)N[C@@H](CCC(=O)O)C(=O)N[C@@H](CCC(N)=O)C(=O)N[C@@H](CCC(=O)O)C(=O)N[C@@H](CCCCN)C(=O)N[C@@H](CCC(N)=O)C(=O)N[C@@H](CCCCN)C(=O)N[C@@H](CCCCN)C(=O)N[C@@H](CCC(N)=O)C(=O)N[C@@H](CCCNC(=N)N)C(=O)N[C@@H](CCC(=O)O)C(=O)N[C@@H](CCC(N)=O)C(=O)N[C@@H](C)C(=O)N[C@@H](CCC(=O)O)C(=O)N[C@H](C(=O)N[C@@H](CC(N)=O)C(=O)N[C@@](C)(CCCCN)C(=O)N[C@@H](CCC(N)=O)C(=O)N[C@H](C(=O)N[C@@H](CC(C)C)C(=O)N[C@@H](C)C(=O)N[C@@H](CCC(N)=O)C(=O)N[C@H](C(N)=O)C(C)C)[C@@H](C)CC)[C@@H](C)O)[C@@H](C)CC)[C@@H](C)CC)C(C)C)C(C)C [compound 54] (Ac-IVLSLD[dV]PIKLK([γGlu-C16 diacid])KILLEQEKQKKQREQAETN[αMeK]QILAQV-NH2)
5 | > 250 | 2.3 | 0% | 16.8 | CC[C@H](C)[C@H](NC(=O)[C@H](CCC(N)=O)NC(=O)[C@H](CCCCN)NC(=O)[C@H](CC(N)=O)NC(=O)[C@@H](NC(=O)[C@H](CCC(=O)O)NC(=O)[C@H](C)NC(=O)[C@H](CCC(N)=O)NC(=O)[C@H](CCC(=O)O)NC(=O)[C@H](CCCNC(=N)N)NC(=O)[C@H](CCC(N)=O)NC(=O)[C@H](CCCCN)NC(=O)[C@H](CCCCN)NC(=O)[C@H](CCC(N)=O)NC(=O)[C@H](CCCCN)NC(=O)[C@H](CCC(=O)O)NC(=O)[C@H](CCC(N)=O)NC(=O)[C@H](CCC(=O)O)NC(=O)[C@H](CC(C)C)NC(=O)[C@H](CC(C)C)NC(=O)[C@@H](NC(=O)[C@H](CCCCN)NC(=O)[C@H](CCCCNC(=O)COCCOCCNC(=O)COCCOCCNC(=O)CC[C@H](NC(=O)CCCCCCCCCCCCCCCCC(=O)O)C(=O)O)NC(=O)[C@H](CC(C)C)NC(=O)[C@H](CCCCN)NC(=O)[C@@H](NC(=O)[C@@H]1CCCN1C(=O)[C@H](NC(=O)[C@H](CC(=O)O)NC(=O)[C@H](CC(C)C)NC(=O)[C@H](CO)NC(=O)[C@H](CC(C)C)NC(=O)[C@@H](NC(C)=O)C(C)C)C(C)C)[C@@H](C)CC)[C@@H](C)CC)[C@@H](C)O)C(=O)N[C@@H](CC(C)C)C(=O)N[C@@H](C)C(=O)N[C@@H](CCC(N)=O)C(=O)N[C@H](C(N)=O)C(C)C [compound 92] (Ac-VLSLD[dV]PIKLK([AEEA-AEEA-γGlu-C18 diacid])KILLEQEKQKKQREQAETNKQILAQV-NH2)
6 | > 250 | 5.08 | 0% | 19 | CC[C@H](C)[C@H](NC(=O)[C@H](CCC(N)=O)NC(=O)[C@H](CCCCN)NC(=O)[C@H](CC(N)=O)NC(=O)[C@@H](NC(=O)[C@H](CCC(=O)O)NC(=O)[C@H](C)NC(=O)[C@H](CCC(N)=O)NC(=O)[C@H](CCC(=O)O)NC(=O)[C@H](CCCNC(=N)N)NC(=O)[C@H](CCC(N)=O)NC(=O)[C@H](CCCCN)NC(=O)[C@H](CCCCN)NC(=O)[C@H](CCC(N)=O)NC(=O)[C@H](CCCCN)NC(=O)[C@H](CCC(=O)O)NC(=O)[C@H](CCC(N)=O)NC(=O)[C@H](CCC(=O)O)NC(=O)[C@H](CC(C)C)NC(=O)[C@H](CC(C)C)NC(=O)[C@@H](NC(=O)[C@H](CCCCN)NC(=O)[C@H](CCCCNC(=O)COCCOCCNC(=O)COCCOCCNC(=O)CC[C@H](NC(=O)CCCCCCCCCCCCCCCCC(=O)O)C(=O)O)NC(=O)[C@H](CC(C)C)NC(=O)[C@H](CCCCN)NC(=O)[C@@H](NC(=O)[C@@H]1CCCN1C(=O)[C@H](NC(=O)[C@H](CC(=O)O)NC(=O)[C@H](CC(C)C)NC(=O)[C@H](CO)NC(=O)[C@H](CC(C)C)NC(=O)[C@@H](N)C(C)C)C(C)C)[C@@H](C)CC)[C@@H](C)CC)[C@@H](C)O)C(=O)N[C@@H](CC(C)C)C(=O)N[C@@H](C)C(=O)N[C@@H](CCC(N)=O)C(=O)N[C@H](C(N)=O)C(C)C [compound 93] (H-VLSLD[dV]PIKLK([AEEA-AEEA-γGlu-C18 diacid])KILLEQEKQKKQREQAETNKQILAQV-NH2)
4 | > 250 | 0.49 | nd/0 ^ % | – | CCCCC(=O)N[C@H](C(=O)N[C@@H](CC(C)C)C(=O)N[C@@H](CO)C(=O)N[C@@H](CC(C)C)C(=O)N[C@@H](CC(=O)O)C(=O)N[C@H](C(=O)N1CCC[C@H]1C(=O)N[C@H](C(=O)N[C@@H](CCCCN)C(=O)N[C@@H](CC(C)C)C(=O)N[C@@H](CCCCNC(=O)COCCOCCNC(=O)COCCOCCNC(=O)CC[C@H](NC(=O)CCCCCCCCCCCCCCCCC(=O)O)C(=O)O)C(=O)N[C@@H](CCCCN)C(=O)N[C@H](C(=O)N[C@@H](CC(C)C)C(=O)N[C@@H](CC(C)C)C(=O)N[C@@H](CCC(=O)O)C(=O)N[C@@H](CCC(N)=O)C(=O)N[C@@H](CCC(=O)O)C(=O)N[C@@H](CCCCN)C(=O)N[C@@H](CCC(N)=O)C(=O)N[C@@H](CCCCN)C(=O)N[C@@H](CCCCN)C(=O)N[C@@H](CCC(N)=O)C(=O)N[C@@H](CCCNC(=N)N)C(=O)N[C@@H](CCC(=O)O)C(=O)N[C@@H](CCC(N)=O)C(=O)N[C@@H](C)C(=O)N[C@@H](CCC(=O)O)C(=O)N[C@H](C(=O)N[C@@H](CC(N)=O)C(=O)N[C@@H](CCCCN)C(=O)N[C@@H](CCC(N)=O)C(=O)N[C@H](C(=O)N[C@@H](CC(C)C)C(=O)N[C@@H](C)C(=O)N[C@@H](CCC(N)=O)C(=O)N[C@H](C(N)=O)C(C)C)[C@@H](C)CC)[C@@H](C)O)[C@@H](C)CC)[C@@H](C)CC)C(C)C)C(C)C [compound 96] (Pentanoyl-VLSLDVPIKLK([AEEA-AEEA-γGlu-C18 diacid])KILLEQEKQKKQREQAETNKQILAQV-NH2)
